Test results as given in ChEMBL document CHEMBL1136875, “Regioselective preparation of 5-hydroxypropranolol and 4'-hydroxydiclofenac with a fungal peroxygenase” (Bioorg Med Chem Lett, 2009).

How the values were obtained:
[1] = target: T1, Aromatic peroxygenase (Cyclocybe aegerita) (UniProt B9W4V6); test: Activity of Agrocybe aegerita peroxygenase assessed as conversion of diclofenac to 4'-hydroxydiclofenac at 5 mM in presence of 5 mM H2O2 and 4 mM ascorbic acid
T1 sequence (whole entry): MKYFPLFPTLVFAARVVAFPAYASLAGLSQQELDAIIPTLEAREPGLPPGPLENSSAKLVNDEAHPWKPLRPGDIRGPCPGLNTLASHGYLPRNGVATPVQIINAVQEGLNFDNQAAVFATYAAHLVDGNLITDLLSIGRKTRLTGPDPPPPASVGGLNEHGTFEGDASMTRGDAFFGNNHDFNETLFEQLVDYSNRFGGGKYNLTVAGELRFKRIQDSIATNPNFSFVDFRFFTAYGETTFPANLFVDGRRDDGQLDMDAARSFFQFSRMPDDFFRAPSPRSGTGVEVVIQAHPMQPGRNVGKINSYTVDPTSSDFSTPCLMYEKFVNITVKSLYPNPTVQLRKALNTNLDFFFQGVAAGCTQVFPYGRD

Priestia megaterium [2] = test: Activity of Bacillus megaterium CYP450 D6H10 mutant assessed as conversion of diclofenac to 4'-hydroxydiclofenac at 5 mM in presence of 1 mM H2O2 and 4 mM ascorbic acid
Priestia megaterium [3] = test: Activity of Bacillus megaterium CYP450 D6H10 mutant assessed as conversion of propranolol to 5-hydroxypropranolol at 5 mM in presence of 1 mM H2O2 and 4 mM ascorbic acid
[4] = target: T1, Aromatic peroxygenase (Cyclocybe aegerita); test: Activity of Agrocybe aegerita peroxygenase assessed as conversion of propranolol to 5-hydroxypropranolol at 5 mM in presence of 5 mM H2O2 and 4 mM ascorbic acid

Row | Activity [1] [%] | Activity (Priestia megaterium [2]) [%] | Activity (Priestia megaterium [3]) [%] | Activity [4] [%] | SMILES
1 | 30 | 30 |  |  | O=C(O)Cc1ccccc1Nc1c(Cl)cccc1Cl
2 |  |  | 0.5 | 13.6 | CC(C)NCC(O)COc1cccc2ccccc12 (centres undefined)
